According to patent US6696478B2, “Cancer treatment with Gö6976 and its related compounds” (priority 1999, dated 2004):

Tests used:
[1] = tested on: T84 human colorectal cancer cells; assay: Cell viability assay (trypan blue), colorectal cancer cells, second set; format: cell-based; settings: approximately 5×10^5 cells seeded, seven days after treatment
Description: T84 human colorectal cancer cells,
(§1) These cells were maintained in Dulbecco's modified Eagle medium (DMEM) supplemented with 10 percent bovine calf serum.
(§2) Cells were seeded for 24 hours. Then they were either treated with Gö6976, C-o 002, or C-o 003, or left untreated. The cells were then collected periodically and evaluated using trypan blue dye exclusion to asses viability using the method described by CY Chen, et al, in J.Biol. Chem. 273:16700-16709.
(§3) Two sets of approximately 5×10^5 DU145 prostate cancer cells, HepG2 liver cancer cells, AGS gastric cancer cells, and T84 colorectal cancers were seeded and 24 hours later one of the sets were treated with 2 μm Gö6976. Seven days after treatment, viable cells were counted.
(§4) Two sets of approximately 5×10^5 human MDA-MB-468 breast cancer cells, DU145 human prostate cancer cells, A549 lung cancer cells, AGS gastric cancer cells, and T84 colorectal cancer cells were seeded and treated with 14 μm C-o 002 and C-o 003 24 hours later. Seven days after treatment, viable cells were counted.

[2] = tested on: A549 human lung cancer cells; assay: Cell viability assay (trypan blue), lung cancer cells, second set; format: cell-based; settings: 14 μm compound; approximately 5×10^5 cells seeded; seven days after treatment
Description: A549 human lung cancer cells,
as §1, §2, §4

[3] = tested on: MDA-MB-468 human breast cancer cells; assay: Cell viability assay (trypan blue), breast cancer cells, second set; format: cell-based; settings: 14 μm compound; approximately 5×10^5 cells seeded; seven days after treatment
Description: MDA-MB-468 human breast cancer cells
as §1, §2, §4

[4] = tested on: DU145 human prostate cancer cells; assay: Cell viability assay (trypan blue), prostate cancer cells, second set; format: cell-based; settings: approximately 5×10^5 cells seeded, seven days after treatment
Description: DU145 human prostate cancer cells,
as §1, §2, §3, §4

[5] = tested on: AGS human gastric cancer cells; assay: Cell viability assay (trypan blue), gastric cancer cells, second set; format: cell-based; settings: approximately 5×10^5 cells seeded, seven days after treatment
Description: AGS human gastric cancer cells,
as §1, §2, §3, §4

[6] = tested on: HepG2 human liver cancer cells; assay: Cell viability assay (trypan blue), liver cancer cells, second set; format: cell-based; settings: seven days after treatment
Description: HepG2 human liver cancer cells,
as §1, §2, §3, §4

[7] = tested on: normal cells including rat 3Y1 fibroblast; assay: Toxic effects on normal cells; format: cell-based
Text: Toxic effects begin to show up at concentrations of about 5 micromoles in these types of cells.

[8] = tested on: Non-small cell lung cancer cells (NCI-H2342); assay: Cell viability assay (trypan blue), non-small cell lung cancer cells; format: cell-based; settings: treated with Gö6976 (concentration not given); about 5×10^5 cells at start; day 4 (FIG. 5)
Description: Non-small cell lung cancer cells (NCI-H2342).
(§5) Small cell lung cancer cells were grown in RPMI 1640 medium with 2 mM L-glutamine adjusted to contain 1.5 g/L sodium bicarbonate, 4.5 g/L glucose, 10 mM HEPES, 1.0 mM sodium pyruvate, and 5% fetal bovine serum. Non-small cell lung cancer cells were grown in RPMI 1640 medium supplemented with 5% fetal bovine serum, 5 ug/ml insulin, 10 ug/ml transferrin, 30 nM sodium selenite, 10 nM hydrocortisone, 10 nM beta-estradiol, 10 mM HEPES, and 2 mM L- glutamine.
(§6) Cells were seeded for 24 hours. Then they were either treated with Gö6976 or left untreated. The cells were then collected periodically and evaluated using trypan blue dye exclusion to asses viability using the method described by CY Chen, et al, in J.Biol. Chem. 273:16700-16709.
(§7) Two samples each of about 5×10^5 cells small lung cancer cells and non-small lung cancer cells were prepared and one sample of each type was treated with Gö6976 and the viable cells were counted at day 4. In the untreated samples the cancer cells had multiplied by almost a factor of 10 and in the treated samples the count had decreased to less than 0.5 of the original count.

[9] = tested on: 3Y1 cells overexpressing EGF receptors; assay: EGF-induced cell transformation (morphology); format: cell-based, rat
Text: (§8) 3Y1 rat fibroblast cells overexpressing the epidermal growth factor receptor (EGFR).
as §1

[10] = tested on: 3Y1 cells overexpressing EGF receptors; assay: Anchorage-independent cell growth in soft agar (EGF-induced colony formation); format: cell-based, rat; settings: 100 ng/ml EGF and 250 nanamoles Gö6976; three weeks in soft agar (FIG. 8)
Text: as §8
For growth of these cells in soft agar, 1×10^3 cells were suspended in top agar (consisting of 20 percent calf serum, 0.38 percent agar and the remainder DMEM) and overlaid onto hardened bottom agar (DMEM, 20 percent calf serum and 0.7 percent agar) as reported by Sementchenko et al, in Onocgen 17:2883-2888.
The effect of Gö6976 on blocking EGF-induced cell transformation was further confirmed by checking anchorage-independent cell growth. […] One sample was left untreated, one was treated with 100 ng/ml of EGF, one sample was treated with 100 ng/ml of EGF and 250 nanamoles of Gö6976 and one sample was treated with 250 nanaomoles of Gö6976. In each case the percentage of cell forming colonies were determined three weeks after suspending the cells in soft agar.

PKC α = settings: cited from earlier work
C6 glioma cells = assay: Cell growth, brain tumor cells, second set; format: cell-based; settings: 2 μm Gö6976 for 7 days; approximately 5×10^5 cells seeded (FIG. 10)
Description: as §1, §2
(§9) Two sets of approximately 5×10^5 C6 glioma cells and Hela cervical cancer cells were seeded and treated or untreated with 2 μm Gö6976 for 7 days.

[11] = tested on: U-2 OS human osteosacoma cells; assay: Cell viability assay (trypan blue), osteosarcoma cells; format: cell-based; settings: 2 micromoles Gö6976; about 5×10^5 cells at start; after four days (FIG. 6)
Description: U-2 OS human osteosacoma cells,
as §1, §6
One of two samples of about 5×10^5 cells was treated with 2 micromoles of Gö6976 and the viable cells were counted after four days.

[12] = tested on: HL60 human acute promyelocytic leukemia cells; assay: Cell viability assay (trypan blue), leukemia cells; format: cell-based; settings: 2 micromoles Gö6976; 5×10^5 cells at start; after four days (FIG. 4)
Description: HL60 human acute promyelocytic leukemia cells were grown in RPMI 1640 medium containing 10 percent heat-inactivated fetal bovine serum (FBS).
as §6
One of two samples of 5×10^5 cells was treated with 2 micromoles of Gö6976 and the viable cells were counted after four days. At four days the cells in the untreated sample had grown by a factor of nearly 10 to almost 5×10^6 cells whereas viable cells in the treated sample was less than 0.2×10^5.

[13] = tested on: human breast cancer cells (MDA-MB-468 and MDA-MB-453); assay: Cell viability assay (trypan blue dye exclusion), breast cancer cells, first set; format: cell-based; settings: for viable cell count: about 5×10^5 cells at start, counted at day 4 (FIG. 2)
Description: MDA-MB-468 human breast cancer cells,
MDA-MB-453 human breast cancer cells,
as §1, §6
In both FIG. 2 and FIG. 3 error bars indicated the estimated standard error based on three independent experiments.

[14] = tested on: Small cell lung cancer cells (NCI-H048); assay: Cell viability assay (trypan blue), small cell lung cancer cells; format: cell-based; settings: treated with Gö6976 (concentration not given); about 5×10^5 cells at start; day 4 (FIG. 5)
Description: Small cell lung cancer cells (NCI-H048),
as §5, §6, §7

[15] = tested on: A431 human epidermoid carcinoma cells; assay: Cell viability assay (trypan blue), epidermoid carcinoma cells; format: cell-based; settings: 2 micromoles Gö6976; about 5×10^5 cells at start; at four days; untreated grew by a factor of about 24 (FIG. 7)
Description: A431 human epidermoid carcinoma cells,
as §1, §6
One of two samples of about 5×10^5 cells was treated with 2 micromoles of Gö6976 and the viable cells were counted each 24 hours for four days.

[16] = tested on: Hela human cervical cancer cells; assay: Cell growth, cervical cancer cells, second set; format: cell-based; settings: 2 μm Gö6976 for 7 days; approximately 5×10^5 cells seeded (FIG. 10)
Description: Hela human cervical cancer cells
as §1, §2, §9

With `NCCCn1c2ccccc2c2c3c(c4c5ccccc5[nH]c4c21)CNC3` [C-o 002, 12-(3-Aminopropyl)-5,6,7,12,13-pentahydro-indolo[2,3,-a] pyrrolo [3,4-c] carbazole] the viable cells counted ([1]; 14 μm compound) was 1.9 × 10^4, the viable cells counted [2] was 7 × 10^5 and the viable cells counted [3] was 0. For the same molecule, the viable cells counted ([4]; 14 μm compound) was 0, the viable cells counted ([5]; 14 μm compound) was 0 and the viable cells counted ([6]; 14 μm compound) was 0.
For `Cl.NCCCn1c2ccccc2c2c3c(c4c5ccccc5[nH]c4c21)CNC3` [C-o 003, 12-(3-Aminopropyl)-5,6,7,12,13-pentahydro-indolo[2,3,-a] pyrrolo [3,4-c] carbazole hydrochloride], the viable cells counted ([1]; 14 μm compound) was 2.7 × 10^4, the viable cells counted [2] was 8.5 × 10^5 and the viable cells counted [3] was 0. It also gave a viable cells counted ([4]; 14 μm compound) of 0, a viable cells counted ([5]; 14 μm compound) of 0 and a viable cells counted ([6]; 14 μm compound) of 0.
In the case of `Cn1c2ccccc2c2c3c(c4c5ccccc5n(CCC#N)c4c21)CNC3=O` [Gö6976, 12-(2-Cyanoethyl)-6,7,12,13-tetrahydro-13-methyl-5-oxo-5H-indolo[2,3-a]pyrrolo[3,4-c]carbazole], the “toxic effects on normal cells” value ([7]; concentrations used in the first set of experiments) is reported as “no significant toxic effects”, the “concentration at which toxic effects begin to show up” value ([7]; normal cells) is reported as “about 5 micromoles” and the “viable cell count relative to the original count” value [8] is reported as “less than 0.5”. The “toxic effect on 3Y1 EGFR cells” value ([9]; Gö6976 alone) was “did not show any toxic effect”, the “EGF-induced cell transformation (transformed morphology)” value ([9]; co-treatment with 250 nanamoles Gö6976 and 100 ng/ml EGF, 24 hours) was “completely blocked” and the “colony forming efficiency of EGF (percentage of cell forming colonies)” value [10] was “greatly reduced”. The viable cells counted ([1]; 2 μm Gö6976) was 1.1 × 10^4, the “TPA-induced downregulation of PKC α” value (PKC α) was “prevented TPA-induced downregulation” and the viable cells counted ([4]; 2 μm Gö6976) was 0. The cell growth (C6 glioma cells) was “significant inhibited the growth”, the “viable cells in the treated sample relative to the original count” value [11] was “reduced to about half the original count” and the “viable cells in the treated sample” value [12] was “less than 0.2×10^5”. For the same molecule, the viable cell count ([13]; 1 micromole Gö6976) was “about 1×10^5”, the viable cell count ([13]; 2.0 micromolar Gö6976) was “less than 0.3×10^5” and the “viable cell concentration over time” value ([13]; 2.0 micromoles Gö6976, measured at 24 hours intervals for 4 days (FIG. 3)) was “reduced by approximately half each 24 hours”. For the same molecule, the viable cells counted ([5]; 2 μm Gö6976) was 0, the “viable cell count relative to the original count” value [14] was “less than 0.5” and the “viable cells in the treated sample relative to the original count” value [15] was “approximately doubled”. The viable cells counted ([6]; 2 μm Gö6976, approximately 5×10^5 cells seeded) was 0 and the cell growth [16] was “significant inhibited the growth”.
